From the NIST ThermoML archive (doi:10.1016/j.jct.2015.02.002)
Numbers after ± are expanded uncertainties.

Details: Crystal; visual observation

## O=C(O)CC(O)C(=O)O (stereo unspecified) [hydroxybutanedioic acid]
  Normal melting temperature: 130.00 ± 0.5 °C
